This is an account of results in PubChem BioAssay (NCI).

Each structure is given as a SMILES string.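 Step 1: Grow cells in 96-well plates. Step 2: Expose to compound for 48 hours at 5 concentrations. Step 3: Interpolate endpoints linearly; if unreached, use highest concentration. Definition used: TGI = concentration required for complete inhibition of growth.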

What all share (assay): NCI tumour cell line growth inhibition, 48 h
Experiment [1] has as its system SK-MEL-5 melanoma.
Experiment [2] deals with U251 CNS.
Experiment [3] deals with MDA-MB-231 breast.
The test system of experiment [4] is SN12C renal.
Experiment [5] deals with SK-OV-3 ovarian.
Experiment [6] deals with BT-549 breast.
Experiment [7] has as its system HS 578T breast.
In experiment [8] the test system is UACC-62 melanoma.
Experiment [9] concerns MDA-MB-435.
The subject of experiment [10] is HT29 colon.
For experiment [11], the system named is UACC-257 melanoma.
Experiment [12] deals with HOP-62 NSCLC.
Experiment [13] has as its system LOX IMVI melanoma.
In experiment [14] the test system is DU-145 prostate.
For experiment [15], the system named is KM12 colon.

As for `COc1c2ccccc2c(OC)c2nc(C)ccc12`, the TGI in experiment [1] is more than 100 µM; in experiment [2], more than 46.4 µM; in experiment [3] it was more than 100 µM; in experiment [4], more than 100 µM; in experiment [5] it was more than 100 µM; in experiment [6] it was more than 100 µM. For the same molecule, the TGI in experiment [7], in experiment [8], in experiment [9], in experiment [10], in [11] and in experiment [12] was more than 100 µM throughout. Moreover, the TGI is 56.1 µM in experiment [13], more than 100 µM in experiment [14] and more than 100 µM in experiment [15].

For the molecule `Cc1cccc(C)c1NC(=S)NC=C(C(N)=O)C(N)=O`, the TGI in experiment [1], in experiment [2], in experiment [3], in experiment [4], in experiment [5] and in experiment [6] was more than 100 µM each time. Further, the TGI in experiment [7], in [8], in experiment [9], in experiment [10], in experiment [11] and in experiment [12] was more than 100 µM throughout. Besides, the TGI in [13], in experiment [14] and in experiment [15] was more than 100 µM in each case.

`O=C(O)c1ccc2c(c1)CC1(C2)Cc2ccccc2C1=O` (stereo not given): the TGI in [1], in experiment [2], in experiment [3], in experiment [4], in experiment [5] and in experiment [6] was more than 100 µM throughout. The TGI in experiment [7], in experiment [8], in experiment [9], in experiment [10], in experiment [11] and in [12] was more than 100 µM in each case. Besides, the TGI in [13], in [14] and in experiment [15] was more than 100 µM in each case.

For `CCN(CC)C(=S)SNCc1ccc(S(N)(=O)=O)cc1`, the TGI in [1] was 36.2 µM; in experiment [2] it was 15.8 µM; in experiment [3], 37.1 µM; in experiment [4], 28.9 µM; in experiment [5], more than 86 µM; in experiment [6], 33 µM. In addition, the TGI is 50.4 µM in experiment [7]; 83.1 µM in [8]; more than 50.9 µM in [9]; 21 µM in experiment [10]; 33.5 µM in experiment [11]; 30.5 µM in [12]. Besides, the figures for the TGI in [13], in [14] and in experiment [15] were 28.8 µM, 33.4 µM and 29.2 µM, respectively.

Turning to `O=C(CCc1ccc(O)cc1)NCCc1cccc(OCc2ccccc2)c1`, the TGI was 32.7 µM in experiment [1]; 64.9 µM in experiment [2]; more than 100 µM in experiment [3]; more than 100 µM in experiment [4]; more than 100 µM in [5]; 45.6 µM in experiment [6]. Besides, the TGI in experiment [7] is more than 100 µM; in [8] it was 34 µM; in experiment [9] it was 38.6 µM; in [10] it was 38.4 µM; in [11], 39.3 µM; in experiment [12], more than 100 µM. Also, the TGI in [13] was 30.4 µM; in experiment [14], more than 100 µM; in experiment [15], 83 µM.

In the case of `c1ccc(Nc2nnc(Cn3ccc4ccccc43)s2)cc1`, the TGI in experiment [1], in [2], in experiment [3], in [4], in experiment [5] and in experiment [6] was more than 100 µM in each case. The TGI in experiment [7], in [8], in experiment [9], in [10], in [11] and in [12] was more than 100 µM each time. Further, the TGI in [13], in experiment [14] and in experiment [15] was more than 100 µM each time.

Consider `COc1ccc2c(c1)CCc1[nH]c3ccccc3c1CCCC2`, for which the TGI in experiment [1], in experiment [2], in experiment [3], in experiment [4], in experiment [5] and in [6] was more than 10 µM throughout. In addition, the TGI in experiment [7], in experiment [8], in experiment [9], in [10], in experiment [11] and in [12] was more than 10 µM in each case. The TGI in experiment [13], in experiment [14] and in [15] was more than 10 µM throughout.
